Experimental data from ChEMBL document CHEMBL1157539, “Thousands of chemical starting points for antimalarial lead identification” (Nature, 2010).

Each molecule was assayed on Plasmodium falciparum (assay: GSK_TCMDC: Inhibition of Plasmodium falciparum 3D7 in whole erythrocytes, using parasite LDH activity as an index of growth.). Settings: Plasmodium falciparum, 3D7.
Format: functional, organism-based

Going from `CCC(=O)c1c(C)n(-c2ncnc3c2nc(C)n3-c2ccc(C)cc2C)c2ccccc12` to `Cc1ccn2c(C(=O)N3CCN(c4cccc5c4nc(-c4ccoc4)n5Cc4ccccn4)CC3)c(C)nc2c1`, the XC50 falls from 645 nM to 203 nM (3.2-fold).

Compared with `COc1ccccc1Cc1nc2ccccc2nc1SCC(=O)Nc1cccc(C(F)(F)F)c1`, `O=C(CCc1cccnc1)Nc1cccc(-c2ccc(-c3nc4cc(C(F)(F)F)ccc4[nH]3)s2)c1` is 1.9-fold higher in XC50: 499 nM for the first, 953 nM for the second.

First: CCCc1ccc(NC(=O)c2ccc(CN3CCCN(Cc4cccc(O)c4)CC3)cc2)cc1
Second: COCCN1CCN(Cc2cccc(-c3ccc(-c4nc5ccccc5[nH]4)cc3)c2)CC1
The XC50 of the first is 1.9-fold lower: 396 nM for the first, 761 nM for the second.

`CCC(=O)NC(c1ccco1)c1cc(Cl)c2cccnc2c1O` (centres undefined) and `CC(Nc1ccnc2cc(Cl)ccc12)c1ccc(S(N)(=O)=O)cc1` (centres undefined) are within 1.5-fold of each other in XC50: 875 nM for the first, 933 nM for the second.

`O=C(N[C@H]1CCN(CCc2ccc(O[C@H]3CCNC3)cc2)C1)c1ccc(Cl)c(Cl)c1` and `O=C(NC1CCN(CCC[C@]2(c3ccc(Cl)c(Cl)c3)CCCN(C(=O)c3ccccc3)C2)CC1)c1ccc(F)cc1` are within 1.5-fold of each other in XC50: 828 nM for the first, 883 nM for the second.

`FC(F)(F)COc1ccc2ccccc2c1CCNCCCCNCCc1c(OCC(F)(F)F)ccc2ccccc12` and `COc1cc(NCCCNCc2cn(S(=O)(=O)c3ccccc3)c3ccccc23)nc2ccccc12` are within 1.5-fold of each other in XC50: 426 nM for the first, 386 nM for the second.

Compared with `NC(=O)c1ccccc1OCC(=O)Nc1cccc(-c2cccc(-c3nc4ccccc4[nH]3)c2)c1`, `Cc1cccc2nc(-c3cccc(-c4ccc(NC(=O)COc5ccccc5C(N)=O)cc4)c3)[nH]c12` is 2.4-fold higher in XC50: 376 nM for the first, 889 nM for the second.

`O=c1cc(NCCCCNCc2cccc(Br)c2)[nH]c2ccccc12` and `Cc1c(CNCCCNc2cc(=O)c3ccccc3[nH]2)sc(/C=N/O)c1Br` are within 1.5-fold of each other in XC50: 729 nM for the first, 1080 nM for the second.

`Cc1ccc(Cn2nc(Cl)c(N3CCCNCC3)cc2=O)cc1NC(=O)Nc1ccc(-c2ccccc2)cc1` and `Cc1ccc(C(C(=O)Nc2ccc(N3CCNCC3)c(Cl)c2)c2ccccc2)cc1` (centres undefined) are within 1.5-fold of each other in XC50: 667 nM for the first, 843 nM for the second.

Going from `CCc1cn(CCOC)c2ccc(C(=O)N[C@@H](Cc3ccccc3)[C@H](O)CNC(C)(C)CCCC(C)C)cc12` to `CCc1cn2c3c(cc(C(=O)N[C@@H](Cc4ccccc4)[C@H](O)CN[C@@H](C)CC)cc13)N(C)S(=O)(=O)CC2`, the XC50 falls from 569 nM to 74.5 nM (7.6-fold).

`CC(C)CNCc1cccc(-c2cccc(CN(CCN(C)C)C(=O)NCCc3ccccc3)c2)c1` and `CS(=O)(=O)CCNCc1cccc(-c2cc3c(Nc4ccc5c(cnn5Cc5ccccc5)c4)ncnc3s2)c1` are within 1.5-fold of each other in XC50: 693 nM for the first, 553 nM for the second.

First: CNC(=O)c1cc(F)c(F)cc1Nc1nc(Nc2cccc(CS(C)(=O)=O)c2)ncc1Cl
Second: COc1ccc(CNC(=O)c2cnc3c(O)cccc3c2Nc2cccc(NC(=O)c3ccc(Cl)c(Cl)c3)c2)cc1
The XC50 of the first is 1.7-fold higher: 1020 nM for the first, 604 nM for the second.

Compared with `Cc1cc(S(=O)(=O)N2CCCCC(c3ccc(C(F)(F)F)cc3)=N2)c(Cl)cc1Cl`, `COc1ccc(CNC2Cc3ccccc3C2)cc1-c1ccc(OC)c(S(=O)(=O)NCCN2CCCC2)c1` is 1.5-fold higher in XC50: 504 nM for the first, 773 nM for the second.

First: CCOC(=O)CCCCCNC[C@H](O)c1ccccc1
Second: Cc1ccccc1NC(=O)NC1CCN(CCCCCNC(=O)/C=C/c2ccc(Cl)c(Cl)c2)CC1
The XC50 of the first is 2.3-fold lower: 328 nM for the first, 769 nM for the second.

`O=C(NCC1CC1)C1Cc2c([nH]c3ccc(Br)cc23)C2(CCN(CCc3ccccc3)CC2)N1` (centres undefined) and `Cc1[nH]c(-c2ccc(F)cc2)cc1C(=O)NC1CCN(Cc2ccccc2)CC1` are within 1.5-fold of each other in XC50: 908 nM for the first, 1130 nM for the second.

Going from `CCNc1cc(C(=O)N[C@@H](Cc2ccccc2)[C@H](O)CNC23CCC(CC2)C3)cc(N2CCCCS2(=O)=O)c1` to `COc1ccccc1-c1ccc(C(=O)NCC2CCCN(Cc3cccc(C(F)(F)F)c3)C2)s1` (centres undefined), the XC50 rises from 34.1 nM to 1540 nM (45-fold).

Going from `O=C(NCc1ccc2c(c1)OCO2)c1nn(CCN2CCC(N3CCCC3)CC2)cc1-c1ccc(Cl)c(Cl)c1` to `O=C(Nc1ccccc1)N(Cc1ccc(-c2ccc(CNCc3ccc4c(c3)OCO4)cc2)cc1)C1CCN(Cc2ccccc2)CC1`, the XC50 falls from 935 nM to 570 nM (1.6-fold).

`CC(C)CCN1CCC(Oc2cccc(NC(=O)c3ccc(C(F)(F)F)cc3)c2)CC1` and `O=C(Nc1cccc(F)c1)NC1CCN(CCCCCNC(=O)C2CC2c2ccc(Cl)c(Cl)c2)CC1` (centres undefined) are within 1.5-fold of each other in XC50: 630 nM for the first, 763 nM for the second.

`Cc1cccc2nc(-c3ccc(-c4cccc(NC(=O)c5cnn6cccnc56)c4)cc3)[nH]c12` and `Cc1cnc(C(=O)Nc2cccc(-c3ccc(-c4nc5cc(F)ccc5[nH]4)cc3)c2)cn1` are within 1.5-fold of each other in XC50: 872 nM for the first, 637 nM for the second.

Going from `O=C(NCCN1CCCCC1)c1cccc(Nc2nccc(Nc3ccc(Oc4ccccc4)cc3)n2)c1` to `Cc1cc(NC(=O)Nc2ccc(Oc3ccccc3)cc2)c2ccccc2n1`, the XC50 rises from 273 nM to 840 nM (3.1-fold).

`COc1cc(Cl)c(C)cc1-n1cc(C(=O)c2cc(Br)ccc2O)cc(C#N)c1=O` and `COc1cc(C)nc2ccc(NC(=O)COCC(=O)Nc3ccc4nc(C)cc(OC)c4c3)cc12` are within 1.5-fold of each other in XC50: 874 nM for the first, 917 nM for the second.

`COc1ccc2ncc(F)c(NC(=O)C3CCC(NCc4cc5c(F)cccc5[nH]4)CC3)c2n1` (centres undefined) and `O=c1[nH]c2c(cc1CNC1CCCCC1)c(-c1ccc(F)cc1)nn2-c1ccccc1` are within 1.5-fold of each other in XC50: 1090 nM for the first, 804 nM for the second.

First: O=c1sn(-c2csc3ccccc23)c2ccccc12
Second: N#Cc1ccc2[nH]c(-c3ccccc3)nc2c1
The XC50 of the first is 2.1-fold lower: 339 nM for the first, 698 nM for the second.

`COc1ccc2nccc([C@@H](O)CN3CCC(NCC4COc5ccccc5O4)CC3)c2c1` (some centres undefined) and `C/C=C1\CN2CC[C@H]1C[C@H]2[C@H](O)c1ccnc2ccc(OC)cc12` are within 1.5-fold of each other in XC50: 247 nM for the first, 318 nM for the second.

Going from `Oc1ccc(-c2nc(-c3ccc4oc5ccc(-c6[nH]c(-c7ccc(O)cc7)nc6-c6ccccc6)cc5c4c3)c(-c3ccccc3)[nH]2)cc1` to `CC(=O)Nc1nc(C(=O)Nc2ccc(-c3ccc(-c4nc5cc(F)ccc5[nH]4)cc3)cc2)cs1`, the XC50 falls from 1110 nM to 460 nM (2.4-fold).

Compared with `CCCC(C)Nc1nc(C)cc(NCCC(=O)Nc2ccc(OC)cc2)n1` (centres undefined), `COc1ccc2nc(C)cc(NCc3ccc4ccccc4c3)c2c1` is 2.9-fold lower in XC50: 1380 nM for the first, 468 nM for the second.

First: O=C(Nc1ccc(N2CCCCC2)c(Cl)c1)c1ccc(Br)o1
Second: OC(CNC1CCCCC1)Cn1c2ccc(I)cc2c2cc(I)ccc21 (centres undefined)
The XC50 of the first is 1.6-fold higher: 549 nM for the first, 337 nM for the second.

Going from `CCCC[C@@H](C(=O)NCc1ccccc1C(F)(F)F)N1C(=O)CCC1C(=O)Nc1ccc([N+](=O)[O-])cc1` (some centres undefined) to `CCN(CC)CCNC(=O)c1ccc(NC(=O)c2cc3c(C)nn(-c4ccc(Cl)cc4)c3s2)cc1`, the XC50 falls from 848 nM to 253 nM (3.4-fold).

Compared with `O=C1COc2ccc(CNC3CCC(O)(CCc4ccnc5cc6c(cc45)OCCO6)CC3)nc2N1` (centres undefined), `COc1cc(Nc2ccnc3cc(-c4nccs4)ccc23)ccc1OCCCc1nc2ccccc2[nH]1` is 3.9-fold lower in XC50: 931 nM for the first, 237 nM for the second.

`COc1ccc2nc(C)cc(N/N=C/C=C/c3ccccc3)c2c1` and `COc1cccc(Cc2c(C)nc3nc(N)nc(N)c3c2C)c1` are within 1.5-fold of each other in XC50: 701 nM for the first, 879 nM for the second.

First: Cc1c(CNCCCNc2nc3ccncc3[nH]2)sc(Br)c1Br
Second: Cc1[nH]c(C)c(-c2ccc(-c3ccccc3F)nc2)c(=O)c1Cl
The XC50 of the first is 4.2-fold higher: 1040 nM for the first, 250 nM for the second.

`COc1cc(Nc2nccc(N3CCC(NC(=O)C(C)c4ccc(Cl)cc4)C3)n2)cc(OC)c1OC` (centres undefined) and `Nc1nc(Cc2ccc(Cl)cc2)nc(Cc2ccc(Cl)cc2)n1` are within 1.5-fold of each other in XC50: 757 nM for the first, 929 nM for the second.

First: CCCN(CCC)S(=O)(=O)c1ccc(C(=O)N2CCC(C(=O)OCC)CC2)cc1
Second: O=C(c1ccccc1)N1CCC(CN2CCOC(c3ccccc3)(c3ccccc3)C2)CC1
The XC50 of the first is 1.6-fold higher: 803 nM for the first, 497 nM for the second.

Going from `CCCCCCn1c2c(c(=N)c3c1CCC3)CCC2` to `CCCN(CCCCCCN(CCC)CCc1ccc(O)c(O)c1)CCc1ccc(O)cc1`, the XC50 rises from 178 nM to 1010 nM (5.7-fold).

`CC(C)(C)C1CC(=O)CC2C(=O)N(c3ccc(Br)cc3)C(=O)C21` (centres undefined) gave an XC50 of 934 nM.
